Measured values as given in publication PMC11459966, “Oral pharmacokinetics and efficacy of oral phospholipid remdesivir nucleoside prodrugs against SARS-CoV-2 in mice” (Antimicrobial Agents and Chemotherapy, 2024).
Read-outs that look alike come from different tables or passages of the source.

Tests used:
[1] = tested on: SARS-CoV-2 isolate USA-WA1/2020
[2] = tested on: Calu-3 cells; parameters: method as in PMID 37040439; settings: Calu-3, CellTiter-Glo, previously published, identical conditions ref 7; cited from earlier work
[3] = tested on: SARS-CoV-2 isolate USA-WA1/2020; parameters: method as in PMID 37040439; settings: Calu-3, dotted lines of Fig. 2 and 3 ref 7; read-out: in vitro EC90 for SARS-CoV-2 infection in Calu-3 cells; cited from earlier work
[4] = tested on: SARS-CoV-2 isolate USA-WA1/2020; experiment: microbe, parasite or virus in culture; assay type: cell-based
[5] = tested on: SARS-CoV-2 isolate USA-WA1/2020; remark: listed apart in the source
[6] = tested on: SARS-CoV-2 isolate USA-WA1/2020; remark: listed apart in the source
[7] = tested on: Huh7.5 cells; parameters: method as in PMID 37040439; settings: Huh7.5, CellTiter-Glo, previously published, identical conditions ref 7; cited from earlier work
[8] = 5-day oral tolerability study with terminal pharmacokinetics in BALB/c mice; assay type: in vivo; settings: 80 mg/kg or 100 mg/kg daily PO
Method: Fig 3 Oral RVn prodrugs maintain high serum levels after repeated dosing in mice and hamsters. Multiple-dose oral tolerability and pharmacokinetics in mice and Syrian hamsters: (A and B) 5-day oral tolerability study in BALB/c mice with pharmacokinetics obtained after the final dose. Male 20–22 g mice were given the indicated drugs at (A) 80 mg/kg or (B) 100 mg/kg PO daily in 0.1 M sodium carbonate/bicarbonate pH 9 for 5 days. Plasma was obtained after the last dose at 1, 3, 6, and 12 h (In Vivo Technologies, Moffatt Field, CA). (C) 7-day oral tolerability study in Syrian hamsters with pharmacokinetics obtained after the final dose. […] All plasma samples were analyzed to determine prodrug levels (Aliri Bio, Colorado Springs, CO).
After fortification, 50 µL of plasma was crashed with 400 µL of methanol containing 10 ng/mL of the internal standard (V2066). One hundred fifty microliters of the supernatant was removed and diluted with 150 µL of water in a clean 96 well injection plate.
Chromatography for the prodrugs was performed on a Raptor Biphenyl (2.1 × 50) column at a flow rate of 0.5 mL/min. A gradient method starting at 60% B (0.1% formic acid in 90:10 methanol:acetonitrile) for 30 s and then ramping to 95% B over 2.5 min. This composition was held for 1.0 min before being returned to starting conditions and re-equilibration to 40% A (10 mM ammonium formate with 0.2% formic acid in water).
Oral pharmacokinetic studies were carried out at In Vivo Technologies (Moffatt Field, CA) in male BALB/c mice, 22–23 g under IACUC protocol number IVT-11–010Y12 (LifeSource Animal Care and Use Committee). […] Blood was obtained by facial vein or terminal cardiac puncture at the indicated times and plasma was frozen for analysis. Similar procedures were followed for 5-day tolerability and terminal dose pharmacokinetic studies in mice at oral daily doses of 80 or 100 mg/kg.

[9] = Single dose PO or IV plasma pharmacokinetics and tolerability in BALB/c mice; settings: BALB/c mice
[10] = tested on: Vero-TMPRSS2 cells; experiment: Cell viability assay (CellTiter-Glo), Vero-TMPRSS2; assay type: cell-based, African green monkey; settings: 48 h incubation
Method: Cell viability assays (Table 1) were performed as previously described ([7]). Cells were cultured and seeded as per in vitro antiviral studies in opaque walled 96-well cell culture plates and incubated overnight for Huh7.5, A2T2-A549, and Vero-E6-TMPRSS2 cells and for 2 days for Calu-3 cells. Compounds or controls were added at the indicated concentrations in a total volume of 100 µL, and cells were incubated for 48 h. An equal volume of CellTiter-Glo reagent (Promega, Cat. #G7570) or CellTiter-Glo 2.0 reagent (Promega, Cat. #G9241) was added and mixed, and luminescence was recorded on a Veritas Microplate Luminometer (Turner BioSystems) or a Spark Multimode plate reader (Tecan) according to manufacturer instructions. Percent viability was normalized to DMSO controls, and CC50 values were derived from best fit curves calculated in Prism 10.

[11] = tested on: A2T2-A549 cells; experiment: Cell viability assay (CellTiter-Glo), A2T2-A549; settings: A2T2-A549, CellTiter-Glo, 48 h incubation
[12] = parameters: method as in PMID 38776389; settings: twice daily oral 30 mg/kg doses, BALB/c mice ref 10; cited from earlier work
[13] = tested on: SARS-CoV-2 isolate USA-WA1/2020; experiment: microbe, parasite or virus in culture

With `CCCCCCCCC=CCCCCCCCCOCC(COP(=O)(O)OCC1OC(C#N)(c2ccc3c(N)ncnn23)C(O)C1O)OCc1ccc(OC)c(F)c1` (centres unmarked) [Compound V2053] as the compound, how does the “Relative activity vs RVn (RVN EC50/Test Compound EC50)” value ([1]; A2T2-A549) read?
The value was 7.3×.

And the “SI (CC50/EC50)” value ([1]; A2T2-A549)?
Its value is greater than 243.

What about the EC50 ([1]; read-out: EC50 μM ± SD, A2T2-A549 cells, 48 hpi) of the same compound?
Its EC50 is 0.41 ± 0.04 µM.

What about the EC90 ([1]; read-out: EC90 μM ± SD, A2T2-A549 cells, 48 hpi) of the same compound?
The EC90 was 0.811 ± 0.059 µM.

And the CC50 [2]?
Its CC50 is 58700 nM.

What about the EC90 [3] of the same compound?
Its EC90 is 154 nM.

And the “Relative activity vs RVn (RVN EC50/Test Compound EC50)” value ([4]; Calu-3)?
Its value is 9.0×.

And the EC50 ([4]; Calu-3 cells, 44–48 hpi)?
The EC50 was 0.074 ± 0.014 µM.

And the EC90 ([4]; Calu-3 cells, 44–48 hpi)?
The EC90 was 0.153 ± 0.047 µM.

And the “Relative activity vs RVn (RVN EC50/Test Compound EC50)” value ([5]; Vero-TMPRSS2)?
Its value is 8.0×.

And the “SI (CC50/EC50)” value ([5]; Vero-TMPRSS2)?
The value was greater than 746.

What about the EC50 ([5]; read-out: EC50 μM ± SD, Vero-TMPRSS2 cells, 32 hpi) of the same compound?
The EC50 was 0.134 ± 0.05 µM.

What about the EC90 ([5]; read-out: EC90 μM ± SD, Vero-TMPRSS2 cells, 32 hpi) of the same compound?
Its EC90 is 0.367 ± 0.139 µM.

And the “Relative activity vs RVn (RVN EC50/Test Compound EC50)” value ([6]; Huh7.5)?
Its value is 28.9×.

What about the “SI (CC50/EC50)” value ([6]; Huh7.5) of the same compound?
The value was >2,128.

What about the EC50 ([6]; read-out: EC50 μM ± SD, Huh7.5 cells, 48 hpi) of the same compound?
The EC50 was 0.047 ± 0.015 µM.

And the EC90 ([6]; read-out: EC90 μM ± SD, Huh7.5 cells, 48 hpi)?
The EC90 was 0.136 ± 0.058 µM.

What about the CC50 [7] of the same compound?
The CC50 was greater than 100000 nM.

And the “tolerability of once-daily oral doses for 5 days” value [8]?
Its value is “no adverse clinical effects were noted”.

And the “tolerability of single escalating oral doses” value ([9]; 20, 60 or 180 mg/kg single oral dose)?
The value was “well tolerated with no appreciable adverse effects”.

What about the AUC ([9]; IV, 7 mg/kg, plasma) of the same compound?
The AUC was 9.58 µM·h.

What about the Cmax ([9]; IV, 7 mg/kg, plasma) of the same compound?
Its Cmax is 30.2 µM.

What about the T1/2 ([9]; IV, 7 mg/kg, plasma) of the same compound?
Its T1/2 is 0.29 h.

And the AUC ([9]; Oral, 20 mg/kg)?
The AUC was 13.60 µM·h.

And the CL/F ([9]; Oral, 20 mg/kg)?
The CL/F was 28 mL/min/kg.

And the Cmax ([9]; Oral, 20 mg/kg)?
The Cmax was 1.78 µM.

What about the T1/2 ([9]; Oral, 20 mg/kg) of the same compound?
Its T1/2 is 6.04 h.

And the Vd/F ([9]; Oral, 20 mg/kg)?
The Vd/F was 14.60 L/kg.

What about the AUC ([9]; Oral, 60 mg/kg) of the same compound?
Its AUC is 53.10 µM·h.

What about the CL/F ([9]; Oral, 60 mg/kg) of the same compound?
The CL/F was 22.3 mL/min/kg.

And the Cmax ([9]; Oral, 60 mg/kg)?
Its Cmax is 7.66 µM.

What about the T1/2 ([9]; Oral, 60 mg/kg) of the same compound?
Its T1/2 is 3.44 h.

And the Vd/F ([9]; Oral, 60 mg/kg)?
The Vd/F was 6.67 L/kg.

And the AUC ([9]; Oral, 180 mg/kg)?
The AUC was 90.80 µM·h.

And the CL/F ([9]; Oral, 180 mg/kg)?
Its CL/F is 30.2 mL/min/kg.

What about the Cmax ([9]; Oral, 180 mg/kg) of the same compound?
The Cmax was 12.5 µM.

And the T1/2 ([9]; Oral, 180 mg/kg)?
Its T1/2 is 7.06 h.

What about the Vd/F ([9]; Oral, 180 mg/kg) of the same compound?
Its Vd/F is 18.50 L/kg.

What about the “F% (oral bioavailability)” value ([9]; oral vs IV (7 mg/kg) prodrug exposure, printed on the 20 mg/kg oral lines) of the same compound?
Its value is 51.0%.

And the CC50 [10]?
The CC50 was greater than 100000 nM.

And the CC50 [11]?
The CC50 was greater than 100000 nM.

With `CC(C)C(=O)OC[C@H]1O[C@@](C#N)(c2ccc3c(N)ncnn23)[C@H](O)[C@@H]1O` [Obeldesivir GS-5245, reference compound] as the compound, how does the daily systemic exposure [12] read?
The daily systemic exposure was 108 µM·h.

What about the EC50 ([13]; Severe acute respiratory syndrome coronavirus 2, read-out: EC50 μM ± SD) of the same compound?
The EC50 was 1.2 ± 0.084 µM.

What about the EC90 ([13]; Severe acute respiratory syndrome coronavirus 2, read-out: EC90 μM ± SD) of the same compound?
Its EC90 is 1.89 ± 0.46 µM.
